Source: US4558064A, “2-Azasfiro[4.(3+N)]-3-carboxylic acid derivatives, a process for their preparation, agents containing these derivatives and their use” (Hoechst Aktiengesellschaft, priority 1982, dated 1985)

System: pressor response induced by angiotensin I
Assay: suppression of the pressor response in the rat induced by 310 ng of angiotensin I
Type: in vivo
Conditions: 30 minutes after administration, 310 ng angiotensin I
Protocol: In animal experiments, the following effects, for example, were obtained: the suppression of the pressor response in the rat induced by 310 ng of angiotensin I was measured.
(a) i.v. administration (30 minutes after administration)
(b) i.d. administration (30 minutes after administration)

[1] = i.v. administration, dose 100 μg/kg

SMILES | % inhibition of the pressor response induced by angiotensin I (i.d. administration, dose 1 mg/kg) | % inhibition of the pressor response induced by angiotensin I [1] | % inhibition of the pressor response induced by angiotensin I (i.d. administration, dose 0.1 mg (so in the source))
CCOC(=O)C(CCc1ccccc1)NC(C)C(=O)N1CC2(CCCC2)CC1C(=O)O (stereo not drawn) | 85-95% | 95% | 
CCOC(=O)C(CCc1ccccc1)NC(C)C(=O)N1CC2(CCCCC2)CC1C(=O)O (stereo not drawn) |  | 95% | 60-70%
CC(NC(CCc1ccccc1)C(=O)O)C(=O)N1CC2(CCCCCC2)CC1C(=O)O (stereo not drawn) |  | 95% | 
CCOC(=O)C(CC(=O)c1ccccc1)NC(C)C(=O)N1CC2(CCCCC2)CC1C(=O)O (stereo not drawn) [N-(1-Carboethoxy-3-oxo-3-phenylpropyl)alanyl-2-azaspiro[4.5]decane-3-carboxylic acid] |  | 95% | 
